Test results published in patent US9718809B2, “Bisarylsulfonamides useful in the treatment of inflammation and cancer” (Kancera AB, priority 2011, dated 2017).

Experiments:
F-2,6-P2 in PANC-1 cells = test: Quantification of F-2,6-P2 (Van Schaftingen coupled enzyme assay) in PANC-1 cells; format: cell-based, human; conditions: Homo sapiens; PANC-1 cells; read-out: IC50 based on quantification of F-2,6-P2
Summary of the method: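 PANC-1 cells (~25 000/well) starved 18 h in glucose-free 0.25% FBS medium, treated 1 h with compound (50 and 10 μM, or dose response from 50 μM; 0.5% DMSO), then glucose added for 2 h at 37 °C. Cells lysed in NaOH; F-2,6-P2 quantified by PPi-PFK coupled NADH-consumption spectrophotometry.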

SW620 cells = test: Inhibition of cancer cell proliferation, total cellular protein (Sulphorhodamine B), SW620; conditions: Homo sapiens, SW-620, 72 h, read-out: IC50 based on quantitation of total cellular protein after treatment
Experimental: To assess the antiproliferative response elicited by the compounds of the present invention in different tumour cell lines, total cellular protein in samples was quantified using the Sulphorhodamine B kit, TOX6, (Sigma-Aldrich). The protocol is based on quantitation of total cellular protein after indicated treatments and incubation times using the Sulphorhodamine B kit, TOX6, (Sigma-Aldrich).
Briefly, after protein precipitation using TCA according to the manufacturer's instructions, the sulphorhodamine dye (80 μL/well) was added to the air-dried wells. After 20 min incubation at room temperature, the dye was discarded and the samples were gently rinsed with 1% HOAc until clear. After air drying, bound dye was solubilised in 200 μL 10 mM Tris base, and the absorbance of dye was measured at 565 nm. To quantify growth, samples were collected also at t=0 h, and the resulting absorbance was set to 100%. […]
After protein precipitation using TCA according to the manufacturer's instructions, the sulforhodamine B dye (50 μL/well) was added to the air-dried wells. […] After air drying, bound dye was solubilised in 100 μL 10 mM Tris base, and the absorbance of dye was measured at 530 nm and a background absorbance (subtract from the measurement at 530 nm) at 690 nm. To quantify growth, samples were collected also at t=0 h.

COC(=O)c1ccc(NS(=O)(=O)c2cc(Cl)c(Cl)s2)cc1OC(C)=O [Example 132, Methyl 2-(acetyloxy)-4-{[(4,5-dichlorothiophen-2-yl)sulfonyl]amino}benzoate]
IC50 (F-2,6-P2 in PANC-1 cells): 1.5 µM | IC50 (SW620 cells): 11.8 µM
